The text below walks through data of patent US10550105B2 (Ribon Therapeutics Inc., priority 2018, dated 2020).

The target in one assay is PARP7 (Homo sapiens (Human), UniProt Q7Z3E1). The assay can be described thus: Enzymatic assay for inhibition of PARP7: TR-FRET displacement of biotinylated Probe A from the TIPARP active site. The assay is classed as binding. The conditions noted are these: Table A-1. The method in brief:
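Displacement of biotinylated Probe A from TIPARP was measured as the 665/615 nm time-resolved FRET ratio (excitation 320 nm, 90 μs delay) after a further 30 min at 25 °C. Inhibition across compound concentrations was fitted by dose-response regression, with the Hill slope free or fixed at 1 (3-parameter fit).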

A further assay has as its system NCI-H647. In words: Growth inhibition of cancer cell lines, 72 hrs (CellTiter-Glo). The assay is classed as cell-based. The conditions noted are these: Homo sapiens, lung, mixed adenosquamous carcinoma. Here is the method: (§1) Example C: Inhibition of Cancer Cell Growth by Treatment with PARP7 Inhibitors
(§2) Table A-2 and Table A-3 (below) represents the concentration that causes 50% growth inhibition (GI50) in a panel of cancer cell lines with Compound 18B and Compound 561. Cells were plated into 384-well plates at a pre-specified density in fetal bovine serum-containing media. Cells were treated with compound or vehicle (DMSO) 24 hrs later, and a day zero plate was collected for analysis. Test compound plates were incubated continuously for 72 hrs (Table A-2) or 144 hours (Table A-3) cell growth was assessed using a luminescent cell viability assay (CellTiter-Glo, Promega). The GI50was determined by correcting for the cell count at time zero (time of treatment) and plotting data as percent growth relative to vehicle-treated cells.
(In general: Cellular ATP, detected with luciferase, serves as a proxy for viable cell number.)

The test system of another assay is HCC1937. The assay is described as above. The conditions noted are these: Homo sapiens, breast, ductal carcinoma. The assay is classed as cell-based. Here is the method:
as §1, §2

For the next assay, the system named is HCC1599. Described as above. The assay is classed as cell-based. The conditions noted are these: Homo sapiens, breast, ductal carcinoma. The method, then: as §1, §2
Another assay has as its system OVISE. The assay is described as above. The assay is classed as cell-based. The conditions noted are these: ovary, clear cell carcinoma. The method, then: as §1, §2
The next assay relates to HCC1187. The assay is described as above. The class given is cell-based. The conditions noted are these: Homo sapiens, breast, ductal carcinoma. Here is the method:
as §1, §2

The test system of another assay is LUDLU-l. Described as above. The conditions noted are these: lung, squamous cell carcinoma. The class given is cell-based. The method, then: as §1, §2
For the next assay, the system named is NCI-H2347. The description is as above. The class given is cell-based. The conditions noted are these: Homo sapiens, lung, adenocarcinoma. The method, then:
as §1, §2

The subject of another assay is HCC-2279. The description is as above. The conditions noted are these: lung, adenocarcinoma. The class given is cell-based. The method, then: as §1, §2
The test system of another assay is EN. The description is as above. The assay is classed as cell-based. The conditions noted are these: endometrium, not specified. Here is the method:
as §1, §2

In the next assay the test system is TYK-nu. The description is as above. The class given is cell-based. The conditions noted are these: ovary, undifferentiated carcinoma. The method, then:
as §1, §2

For another assay, the system named is T3M-10. The assay is described as above. The class given is cell-based. The conditions noted are these: lung, large cell carcinoma. Here is the method:
as §1, §2

The subject of the next assay is SCC-25. Described as above. The assay is classed as cell-based. The conditions noted are these: Homo sapiens, upper aerodigestive tract, squamous cell carcinoma. Here is the method: as §1, §2
The test system of assay [1] is NCI-H1373 lung cancer cells. In words: Inhibition of cancer cell growth in NCI-H1373 lung cancer cells (FIG. 2). The class given is cell-based, human.
The next assay relates to CT26 cells. In words: Proliferation of CT26 cells in the presence of PARP7 inhibitors (CellTiter-Glo, 4 days). The assay is classed as cell-based, mouse. The conditions noted are these: CellTiter-Glo (FIG. 5). The method, then: Example F: Proliferation of CT26 cells in the presence of PARP7 inhibitors
CT26 cells were plated in a 384-well plate and allowed to adhere for several hours before being treated with Compound 18B. Cells were incubated with compound for 4 days prior to processing with CellTiter-Glo reagent (Promega). Luminescence was measured with a Perkin Elmer Envision and percent inhibition was calculated using the vehicle (DMSO) average as 0% inhibition. Non-linear regression analysis was performed using a 4 parameter (variable slope) fit in GraphPad Prism.

A further assay relates to interferon-beta (IFN-β). The assay can be described thus: Induction of interferon-beta levels in RAW264.7 macrophages in the presence of STING agonist DMXAA (FIG. 3). The class given is cell-based. The conditions noted are these: RAW264.7 mouse macrophages.
Assay [2] concerns NCI-H1373 lung cancer xenograft. The assay can be described thus: Inhibition of tumor growth by oral dosing, human NCI-H1373 lung cancer xenograft. The class given is in vivo. The conditions noted are these: NCI-H1373 xenograft in SCID mice. The text has this:
Example H: Inhibition of Tumor Growth by Oral Dosing with a PARP7 Inhibitor
The effect of Compound 561 on tumor growth was studied in a human NCI-H1373 lung cancer xenograft and a murine CT26 colon cancer syngeneic model.
For the NCI-H1373 study, SCID mice were inoculated subcutaneously in the right flank with NCI-H1373 cells for tumor development. After 5 days of tumor growth, mice with 89-148 mm^3 tumors were randomized into treatment groups with mean tumor volumes of 121 mm^3. The treatments were started from the next day post randomization (defined randomization day as day 0) and were treated with vehicle (50% Labrasol) or Compound 561 (62.5, 125, 250, and 500 mg/kg) once a day for 28 days by oral gavage. Tumor volumes were determined by manual calipers every 2-3 days. Mean tumor volume and SEM are plotted. QD: once a day; PO: per oral administration. Statistical significance is calculated using two-way ANOVA followed by Bonferroni post-tests in which the treatment groups were compared to vehicle control (**** P<0.0001).
In general terms: Xenograft models place foreign cells or tissue in a host animal.

The test system of assay [3] is human NCI-H1373 lung cancer xenograft. The assay can be described thus: Tumor growth in human NCI-H1373 lung cancer xenograft (FIG. 7A). The class given is in vivo. The conditions noted are these: once daily administration.
For the next assay, the system named is Panc 03.27. The assay can be described thus: Growth inhibition of cancer cell lines, 144 hours (CellTiter-Glo). The conditions noted are these: Homo sapiens, PANC-03-27, pancreatic adenocarcinoma. The class given is cell-based. Here is the method: as §1, §2
Another assay relates to MDA-MB-468. The assay is described as above. The assay is classed as cell-based. The conditions noted are these: Homo sapiens, breast adenocarcinoma. The method, then: as §1, §2
The subject of another assay is SF126. The description is as above. The class given is cell-based. The conditions noted are these: Homo sapiens, SF-126, glioblastoma multiforme. Here is the method:
as §1, §2

In another assay the test system is T84. The assay is described as above. The class given is cell-based. The conditions noted are these: Homo sapiens, colon adenocarcinoma. The method, then:
as §1, §2

The subject of a further assay is NCI-H2291. The description is as above. The assay is classed as cell-based. The conditions noted are these: Homo sapiens, lung adenocarcinoma. Here is the method:
as §1, §2

The subject of another assay is NCI-H1373. The assay is described as above. The assay is classed as cell-based. The conditions noted are these: Homo sapiens, lung adenocarcinoma. The method, then: as §1, §2
In a further assay the test system is NCI-H1944. The assay is described as above. The assay is classed as cell-based. The conditions noted are these: Homo sapiens, lung adenocarcinoma. The method, then:
as §1, §2

A further assay relates to HT-1080. Described as above. The class given is cell-based. The conditions noted are these: Homo sapiens, fibrosarcoma. Here is the method: as §1, §2
For assay [4], the system named is CT26 colon cancer syngeneic model. In words: Tumor growth in the murine syngeneic model CT26 (FIG. 6A-C, 7B). The assay is classed as in vivo, mouse. The conditions noted are these: once or twice daily administration, FIG. 7B.

pIC50: −log10 of the molar value.

Sequence of PARP7 (Q7Z3E1 whole entry): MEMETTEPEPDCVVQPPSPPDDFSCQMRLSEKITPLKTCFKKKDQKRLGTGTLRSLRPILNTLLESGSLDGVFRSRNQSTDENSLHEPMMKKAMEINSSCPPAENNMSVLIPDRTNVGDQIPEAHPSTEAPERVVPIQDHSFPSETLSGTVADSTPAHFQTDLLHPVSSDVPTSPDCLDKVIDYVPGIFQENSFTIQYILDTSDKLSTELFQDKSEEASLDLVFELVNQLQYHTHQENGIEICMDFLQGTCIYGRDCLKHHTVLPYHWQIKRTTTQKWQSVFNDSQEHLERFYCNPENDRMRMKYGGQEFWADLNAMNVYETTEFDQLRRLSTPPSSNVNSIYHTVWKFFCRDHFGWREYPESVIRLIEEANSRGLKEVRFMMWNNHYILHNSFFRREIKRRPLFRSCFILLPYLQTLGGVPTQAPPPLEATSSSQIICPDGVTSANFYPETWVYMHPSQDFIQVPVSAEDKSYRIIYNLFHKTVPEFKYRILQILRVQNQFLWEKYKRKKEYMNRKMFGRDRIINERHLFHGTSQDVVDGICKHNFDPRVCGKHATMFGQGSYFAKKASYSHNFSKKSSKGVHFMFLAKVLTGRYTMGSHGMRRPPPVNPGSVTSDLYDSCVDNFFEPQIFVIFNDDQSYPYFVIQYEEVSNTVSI

`N#Cc1ccc(N2CCN(C(=O)c3cccc(OC[C@@H]4c5ccccc5CN4c4cn[nH]c(=O)c4C(F)(F)F)c3)CC2)nc1` (single isomer, unassigned) [Example 18 Isomer B]: the pIC50 (as a rule, the negative decadic logarithm of the IC50, by convention in mol/L) at PARP7 is more than 7.00. In addition, the GI50 (commonly the concentration giving 50% growth inhibition) with NCI-H647 is less than 100 nM; with HCC1937 it was less than 100 nM; in the assay with HCC1599, 100 to 1000 nM; in the assay with OVISE it was 100 to 1000 nM; with HCC1187, 100 to 1000 nM; in the assay on LUDLU-l it was 100 to 1000 nM. In addition, the GI50 with NCI-H2347 is less than 100 nM; with HCC-2279 it was 100 to 1000 nM; with EN, 100 to 1000 nM; in the assay with TYK-nu, less than 100 nM; in the assay with T3M-10, less than 100 nM; with SCC-25, less than 100 nM. In [1], the “growth of NCI-H1373 lung cancer cells” value is “dose-dependent decrease in growth”. For the same molecule, the “proliferation in CT26 cells in vitro” value in the assay on CT26 cells is “do not inhibit proliferation”. In addition, the “interferon-beta (IFN-β) levels” value in the assay on interferon-beta (IFN-β) is “induction”.

For the molecule `C[C@@H](COCCC(=O)N1CCN(c2ncc(C(F)(F)F)cn2)CC1)Nc1cn[nH]c(=O)c1C(F)(F)F` [Example 561, 5-[[(2S)-1-(3-oxo-3-[4-[5-(trifluoromethyl)pyrimidin-2-yl]piperazin-1-yl]propoxy)propan-2-yl]amino]-4-(trifluoromethyl)-2,3-dihydropyridazin-3-one], the tumor growth result in assay [2] (62.5, 125, 250 and 500 mg/kg once a day for 28 days by oral gavage, vs vehicle, P<0.0001 (FIG. 7A)) was “significantly reduces tumor growth”; in assay [3], “significantly reduces tumor growth”; in [4], “significantly reduces tumor growth”. Also, the tumor regression entry in assay [2] (62.5 to 500 mg/kg once a day for 28 days, all dose levels) is listed as “complete tumor regression”. Moreover, the GI50 with Panc 03.27 is less than 100 nM; in the assay with MDA-MB-468, not below 1000 nM; in the assay with SF126 it was not below 1000 nM; with T84, not below 1000 nM; with NCI-H2291, not below 1000 nM; in the assay with NCI-H1373, less than 100 nM. Besides, the GI50 in the assay on NCI-H1944 and with HT-1080 was not below 1000 nM each time.
